Data from article PMC4085797, “Synthetic Inositol Phosphate Analogs Reveal that PPIP5K2 Has a Surface-Mounted Substrate Capture Site that Is a Target for Drug Discovery” (Chemistry & Biology, 2014).

How the values were obtained:
Type in all cases: biochemical
human PPIP5K2^KD = target: T1, human PPIP5K2^KD (Homo sapiens, UniProt O43314); test: HPLC assay of [3H]InsP6 phosphorylation (InsP6 kinase activity)
T1 construct: The kinase domain of human PPIP5K2 (PPIP5K2^KD; residues 1–366); made in house
T1 sequence (O43314 1-366): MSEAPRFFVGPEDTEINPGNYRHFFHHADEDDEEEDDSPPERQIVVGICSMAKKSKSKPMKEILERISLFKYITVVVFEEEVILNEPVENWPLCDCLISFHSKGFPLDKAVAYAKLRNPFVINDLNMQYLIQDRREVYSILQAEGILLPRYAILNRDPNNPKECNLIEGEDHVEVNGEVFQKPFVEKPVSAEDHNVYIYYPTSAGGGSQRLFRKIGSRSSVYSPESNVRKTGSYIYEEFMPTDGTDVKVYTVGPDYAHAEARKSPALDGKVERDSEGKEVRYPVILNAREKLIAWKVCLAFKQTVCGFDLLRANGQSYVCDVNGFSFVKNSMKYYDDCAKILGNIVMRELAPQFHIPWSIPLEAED
Protocol: (§1) The initial InsP6 concentration was either 500 nM, 70 nM, or 40 nM. Various concentrations of 2,5-di-O-Bn-InsP4 were present as indicated. Radioactivity was assessed using an in-line Flo1 detector. The ADP-driven dephosphorylation of 100 nM 1,5-[PP]2-InsP4 by PPIP5K2^KD was usually determined by a luminescence-based assay of ATP accumulation ([Riley et al., 2012; Weaver et al., 2013]). The IC50 values were determined using GraphPad Prism v6.02 (n ≥ 3). In some experiments, 1,5-[PP]2-[^3H]InsP4 dephosphorylation by PPIP5K2^KD was assayed in 50 μl buffer containing 50 mM KCl, 20 mM HEPES pH 7.0, 7 mM MgSO4, 5 mM ADP, 1 mM EDTA. Reactions were then quenched, neutralized, and analyzed with HPLC using a Partisphere SAX column ([Weaver et al., 2013]); 1 ml fractions were collected for liquid scintillation spectrometry. The ATPase activity of PPIP5K2^KD (10–270 μg/ml) was assayed from Pi release following incubation at 37°C for 120–180 min in 20 μl reaction mixtures containing 20 mM Tris/HCl, pH 7.5, 10 mM ATP, 100 mM KCl, 0.1 mM EDTA, and 13 mM MgCl2.
S1, related to Figure 4. 2,5-Di-O-Bn-InsP4 (10) inhibits both ADP-driven [PP]2-[3H]InsP4 dephosphorylation and ATP-driven [3H]InsP6 phosphorylation by PPIP5K2 […]
E:Incubation buffers (see Methods) contained 500 nM [3H]InsP6 plus either 12.5 ng PPIP5K2 KD (panel D) or 30 ng PPIP5K2KD plus 1.5 μM 2,5-di-O-Bn-InsP4 (10) (panel E). Reactions rates in the absence and presence of 2,5-di-O-Bn-InsP4 (10) were calculated to be 52 and 21 nmol/mg protein/min, respectively. […]

[1] = target: T2, PPIP5K2^KD (kinase domain of human PPIP5K2) (Homo sapiens, UniProt O43314); test: HPLC analysis of 1,5-[PP]2-[3H]InsP4 dephosphorylation; conditions: 2 μM analog, 200 nM 1,5-[PP]2-[3H]InsP4, 20 min; rate in absence 192
T2 construct: The kinase domain of human PPIP5K2 (PPIP5K2^KD; residues 1–366); made in house
T2 sequence (O43314 1-366): T1 sequence (O43314 1-366)
Protocol: as §1
S1, related to Figure 4. 2,5-Di-O-Bn-InsP4 (10) inhibits both ADP-driven [PP]2-
[3H]InsP4 dephosphorylation and ATP-driven [3H]InsP6 phosphorylation by PPIP5K2 […]
Bn-InsP4 (10) (panel C). After 20 min reactions were quenched and analyzed by HPLC […]
O-Bn-InsP4 (10) were calculated to be 192 and 95 nmol/mg protein/min, respectively. […]

human IP6K2 = target: T3, human IP6K2 (Homo sapiens, UniProt Q9UHH9); test: HPLC assay of [3H]InsP6 phosphorylation by IP6K2; conditions: [InsP6] = 500 nM; data not shown; read-out: IC50, inhibition of IP6K2 activity
T3 construct: Full-length human IP6K2, the kinase domain of human PPIP5K2; made in house
T3 sequence (Q9UHH9 1-426): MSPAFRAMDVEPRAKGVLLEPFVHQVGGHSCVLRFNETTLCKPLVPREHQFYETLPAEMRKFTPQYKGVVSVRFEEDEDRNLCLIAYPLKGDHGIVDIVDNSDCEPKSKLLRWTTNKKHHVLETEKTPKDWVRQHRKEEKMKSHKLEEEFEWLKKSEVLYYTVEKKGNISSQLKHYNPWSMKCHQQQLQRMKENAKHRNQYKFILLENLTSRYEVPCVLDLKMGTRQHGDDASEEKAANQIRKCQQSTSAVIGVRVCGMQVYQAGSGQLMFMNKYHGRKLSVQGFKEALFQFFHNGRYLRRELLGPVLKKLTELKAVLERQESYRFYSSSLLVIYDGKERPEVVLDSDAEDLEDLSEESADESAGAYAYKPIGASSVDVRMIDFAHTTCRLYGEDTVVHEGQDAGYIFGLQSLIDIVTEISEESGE
Protocol: as §1

In the case of `O=P(O)(O)O[C@@H]1[C@@H](OCc2ccccc2)[C@H](OP(=O)(O)O)[C@@H](OP(=O)(O)O)[C@@H](OCc2ccccc2)[C@H]1OP(=O)(O)O` [compound 10, 2,5-di-O-Bn-InsP4], the “reaction rate of [3H]InsP6 phosphorylation in the presence of analog” value (human PPIP5K2^KD; 1.5 μM analog, 500 nM [3H]InsP6, rate in absence 52) is reported as 21 nmol/mg protein/min, the “nature of inhibition of InsP6 kinase activity” value (human PPIP5K2^KD; Dixon plot, Figure 4C) is reported as “competitive” and the Ki (human PPIP5K2^KD; Figure 4C, read-out: Ki, inhibition of InsP6 kinase activity (Dixon plot)) is reported as 240 nM. For the same compound, the IC50 (human PPIP5K2^KD; [InsP6] = 500 nM, read-out: IC50, inhibition of InsP6 phosphorylation) was 1000 nM, the “reaction rate of [PP]2-[3H]InsP4 dephosphorylation in the presence of analog” value [1] was 95 nmol/mg protein/min and the IC50 (human IP6K2) was 63000 nM.
